This is an account of results in patent publication US9833431B2, “Pharmaceutical combinations for the treatment of cancer” (Pitney Pharmaceuticals Pty Limited, priority 2013, dated 2017).

For series [1], the system named is DU-145. In words: SRB cytotoxicity assay, DU-145 cells. It is filed as cell-based. Particulars: Homo sapiens, DU-145, malignant, prostatic, 72 h. Here is the method: (§1) All cell lines described herein were purchased from ATCC. […] Control cultures were treated with ethanol alone.
The subject of series [2] is HT-29. In words: cells. Format: cell-based. Here is the method: as §1
In series [3] the test system is C170. As to the kind of experiment: SRB cytotoxicity assay, C170 cells. It is filed as cell-based. Here is the method:
as §1
For orientation: In SRB staining, fixed cells bind dye roughly in proportion to their protein.

For series [4], the system named is SKOV-3. In words: SRB cytotoxicity assay, SKOV-3 cells. Format: cell-based. Particulars: Homo sapiens, SK-OV-3, SKOV-3, malignant, ovarian, 72 h. Here is the method: as §1
The test system of series [5] is LNCaP. In words: SRB cytotoxicity assay, LNCaP cells. Particulars: 72 h. It is filed as cell-based, human. Here is the method: as §1
For series [6], the system named is immortalized cell lines and the CFPAC-1 and SKOV-3 cell lines. As to the kind of experiment: SRB cytotoxicity assay, summary over immortalized lines. As to conditions: all immortalized cell lines and CFPAC-1 and SKOV-3; summary of Table 3; read-out: IC50 proliferation. It is filed as cell-based. Here is the method: as §1
The subject of series [7] is SKOV-1. As to the kind of experiment: SRB cytotoxicity assay, SKOV-1 cells.
Protocol: Cells were seeded in 96-well plates (2,000-3,000 cells/well), treated with the indicated compound(s) for 72 h, fixed, washed and stained with 100 μl of 0.4% (w/v) SRB dissolved in 1% acetic acid. Unbound dye was removed by five washes with 1% acetic acid before air-drying.
MPL (5 μM) and combination drugs were applied for 72 h unless indicated.

As for `C[C@](C#N)(COc1cc(C#N)ccc1C(F)(F)F)NC(=O)c1ccc(SC(F)(F)F)cc1` [MPL, N-[(1S)-1-cyano-2-(5-cyano-2-trifluoromethyl-phenoxy)-1-methyl-ethyl]-4-trifluoromethylsulfanyl-benzamide], the IC50 was 23 µM in series [1]; 5.9 ± 0.2 µM in series [2] (Homo sapiens, HT-29, malignant, colorectal, SRB, 72 h); around 20 µM in series [3] (Homo sapiens, C170, malignant, colorectal, SRB, 72 h); 31.2 ± 0.8 µM in series [4]; 7.3 µM in series [5] (Homo sapiens, LNCaP, malignant, prostatic, SRB); 12 to 35 µM in series [6]. For the same compound, the “significant cytotoxic effect of MPL alone” value was “no significant cytotoxic effect” in series [2] (HT29 cells, MPL (5 μM), two experiments); “one of two experiments” in series [3] (C170 cells, MPL (5 μM)); “significant cytotoxic effect” in series [7] (SKOV-1 cells, MPL 5 μM, 3/3 experiments). Further, the CC50 in series [2] (Homo sapiens, HT-29, HT29 cells, read-out: LC50 (the source's name)) turned out to be 5.9 µM. Further, the “Mpl Alone, Mpl (x/X) Inhibition” value in series [5] (LNCAP Prostate, 5 μM MPL, x=events, X=experiments) was 1/1. Further, the “A) Single treatment, one symbol per experiment” value in series [7] (SKOV-1, MPL (5 μM), 72 h) is listed as “✓✓✓”.
